Values after ≈ are worked out from the molar mass of the structure shown.
What was measured:
[1] = test system: E. faecalis ATCC 29212; assay: MIC, microdilution method (9.1); format: cell-based, Enterococcus faecalis; settings: Enterococcus faecalis, ATCC29212, 18 h, read-out: MIC
Protocol: (§1) The microdilution method recommended by the Clinical and Laboratory Standard Institute [M07-A8, Vol. 29, No. 2] was used. The activity of indolic compounds was tested against 29 bacterial strains belonging to 17 different species and 12 different genera (Staphylococcus, Streptococcus, Enterococcus, Listeria, Bacillus, Haemophilus, Escherichia, Klebsiella, Enterobacter, Serratia, Pseudomonas, and Acinetobacter). Bacterial inocula were prepared in Mueller Hinton broth (MH2, bioMérieux, Marcy L'Etoile, France), supplemented with 10% sheep blood for fastidious species (i.e., Streptococcus pneumoniae and Haemophilus influenzae). They were dispensed in 96 well microtiter plates (5×10^5 CFU/ml of final inoculum). Indolic compounds were added to the wells as to obtain two-fold serial concentrations (0.50-128 mg/L of final concentrations). Plates were incubated at 37° C. in ambient air, or at 37° C. in 5% CO2 enriched atmosphere for fastidious species. […] Drug-free cultures served as growth controls. Cultures receiving gentamicin, ciprofloxacin or cefotaxime served as positive controls.

[2] = test system: S. mitis CIP 103335; assay: MIC, microdilution method (9.1); format: cell-based, Streptococcus mitis; settings: Streptococcus mitis, CIP103335, 18 h, read-out: MIC
Protocol: as §1

[3] = test system: S. pneumoniae ATCC 6303; assay: MIC, microdilution method (9.1); format: cell-based, Streptococcus pneumoniae; settings: Streptococcus pneumoniae, ATCC6303, 10% sheep blood, 5% CO2, 18 h, read-out: MIC
Protocol: as §1

[4] = test system: E. faecium CIP 54.32; assay: MIC, microdilution method (9.1); format: cell-based, Enterococcus faecium; settings: Enterococcus faecium, CIP54, 18 h, read-out: MIC
Protocol: as §1

[5] = test system: S. epidermidis CIP 103627; assay: MIC, microdilution method (9.1); format: cell-based, Staphylococcus epidermidis; settings: Staphylococcus epidermidis, CIP103627, read after 18 h, read-out: MIC
Protocol: as §1

[6] = test system: S. epidermidis ATCC 12228; assay: MIC, microdilution method (9.1); format: cell-based, Staphylococcus epidermidis; settings: Staphylococcus epidermidis, ATCC12228, read after 18 h, read-out: MIC
Protocol: as §1

[7] = test system: S. epidermidis CIP 81.55; assay: MIC, microdilution method (9.1); format: cell-based, Staphylococcus epidermidis; settings: Staphylococcus epidermidis, CIP81, read after 18 h, read-out: MIC
Protocol: as §1

[8] = test system: S. pyogenes (group A) CIP 104226; assay: MIC, microdilution method (9.1); format: cell-based, Streptococcus pyogenes; settings: Streptococcus pyogenes, CIP104226, 18 h, read-out: MIC
Protocol: as §1

[9] = test system: S. agalactiae (group B) ATCC 12400; assay: MIC, microdilution method (9.1); format: cell-based, Streptococcus agalactiae; settings: Streptococcus agalactiae, ATCC12400, 18 h, read-out: MIC
Protocol: as §1

[10] = test system: Escherichia coli ATCC 25922; assay: MIC, microdilution method (9.1); format: cell-based; settings: ATCC25922, 18 h
Protocol: as §1

[11] = test system: Klebsiella pneumoniae API ATCC 35657; assay: MIC, microdilution method (9.1); format: cell-based; settings: ATCC35657, 18 h, read-out: MIC
Protocol: as §1

[12] = test system: Acinetobacter baumanii ATCC 19606; assay: MIC, microdilution method (9.1); format: cell-based; settings: Acinetobacter baumannii, ATCC19606, 18 h, read-out: MIC
Protocol: as §1

[13] = test system: Enterobacter cloacae ATCC13047; assay: MIC, microdilution method (9.1); format: cell-based; settings: 18 h
Protocol: as §1

[14] = test system: Haemophilus influenzae ATCC 49766; assay: MIC, microdilution method (9.1); format: cell-based; settings: ATCC49766; Haemophilus influenzae ATCC 49766; 10% sheep blood, 5% CO2; 18 h; read-out: MIC
Protocol: as §1

[15] = test system: Listeria innocua CIP 80.11; assay: MIC, microdilution method (9.1); format: cell-based; settings: CIP80, 18 h, read-out: MIC
Protocol: as §1

[16] = test system: Bacillus subtilis CIP 5262; assay: MIC, microdilution method (9.1); format: cell-based; settings: CIP5262, 18 h, read-out: MIC
Protocol: as §1

[17] = test system: S. pneumoniae ATCC 49619; assay: MIC, microdilution method (9.1); format: cell-based; settings: Streptococcus pneumoniae, ATCC49619, 10% sheep blood, 5% CO2, 18 h
Protocol: as §1

[18] = test system: Pseudomonas aeruginosa CIP 5933; assay: MIC, microdilution method (9.1); format: cell-based; settings: CIP5933, 18 h, read-out: MIC
Protocol: as §1

[19] = test system: Serratia marcescens CIP 103551; assay: MIC, microdilution method (9.1); format: cell-based; settings: CIP103551, 18 h
Protocol: as §1

[20] = test system: HCT116 (human colon tumor); assay: In vitro cytotoxicity; format: cell-based; settings: HCT-116, HCT116, from 100 μM to 0.005 μM in DMSO, duplicate
[21] = test system: KB (human mouth carcinoma); assay: In vitro cytotoxicity; format: cell-based; settings: read-out: % of cellular growth inhibition; for inhibition at 10 µM: 10^−5 M; for inhibition at 1 µM: 10^−6 M
Protocol: (§2) In vitro cytotoxicity was assayed on three cell lines—KB (human mouth carcinoma), MCR5 (human lung fibroblast) and HCT116 (human colon tumor). Results are presented in table IV as % of cellular growth inhibition in presence of 10^−5 M and 10^−6 M of the tested bis-indolic derivatives.

[22] = test system: HCT116 (human colon tumor); assay: In vitro cytotoxicity; format: cell-based; settings: read-out: % of cellular growth inhibition; for inhibition at 10 µM: HCT-116, 10^−5 M; for inhibition at 1 µM: HCT-116, 10^−6 M
Protocol: as §2

[23] = test system: MRC5 (human lung fibroblast); assay: In vitro cytotoxicity; format: cell-based; settings: read-out: % of cellular growth inhibition; for inhibition at 10 µM: 10^−5 M; for inhibition at 1 µM: 10^−6 M
Protocol: as §2

[24] = test system: S. aureus ATCC 25923; assay: MIC, microdilution method (9.1); format: cell-based, Staphylococcus aureus; settings: Staphylococcus aureus, ATCC25923, read after 18 h, read-out: MIC
Protocol: as §1

[25] = test system: S. aureus CIP 65.25 (MRSA); assay: MIC, microdilution method (9.1); format: cell-based, Staphylococcus aureus; settings: Staphylococcus aureus, read after 18 h, read-out: MIC
Protocol: as §1

[26] = test system: S. aureus CIP 65.6; assay: MIC, microdilution method (9.1); format: cell-based, Staphylococcus aureus; settings: Staphylococcus aureus, CIP65, read after 18 h, read-out: MIC
Protocol: as §1

[27] = test system: S. aureus ATCC 33592 (MRSA); assay: MIC, microdilution method (9.1); format: cell-based, Staphylococcus aureus; settings: Staphylococcus aureus, read after 18 h, read-out: MIC
Protocol: as §1

[28] = test system: S. aureus SA-1199B; assay: MIC, microdilution method (9.1); format: cell-based, Staphylococcus aureus; settings: Staphylococcus aureus, SA1199B, 18 h
Protocol: as §1

[29] = test system: S. aureus ATCC 9144; assay: MIC, microdilution method (9.1); format: cell-based, Staphylococcus aureus; settings: Staphylococcus aureus, ATCC9144, read after 18 h, read-out: MIC
Protocol: as §1

[30] = test system: S. aureus ATCC 6538; assay: MIC, microdilution method (9.1); format: cell-based, Staphylococcus aureus; settings: Staphylococcus aureus, ATCC6538, read after 18 h, read-out: MIC
Protocol: as §1

[31] = test system: S. aureus ATCC 29213; assay: MIC, microdilution method (9.1); format: cell-based, Staphylococcus aureus; settings: Staphylococcus aureus, ATCC29213, read after 18 h, read-out: MIC
Protocol: as §1

[32] = test system: S. aureus ATCC 106414 (VISA); assay: MIC, microdilution method (9.1); format: cell-based, Staphylococcus aureus; settings: Staphylococcus aureus, read after 18 h, read-out: MIC
Protocol: as §1

[33] = test system: S. aureus CIP 103428; assay: MIC, microdilution method (9.1); format: cell-based, Staphylococcus aureus; settings: Staphylococcus aureus, CIP103428, read after 18 h, read-out: MIC
Protocol: as §1

Row | SMILES | MIC [1] [µg/mL] | MIC [2] [µg/mL] | MIC [3] [µg/mL] | MIC [4] [µg/mL] | MIC [5] [µg/mL] | MIC [6] [µg/mL] | MIC [7] [µg/mL] | MIC [8] [µg/mL] | MIC [9] [µg/mL] | MIC [10] [µg/mL] | MIC [11] [µg/mL] | MIC [12] [µg/mL] | MIC [13] [µg/mL] | MIC [14] [µg/mL] | MIC [15] [µg/mL] | MIC [16] [µg/mL] | MIC [17] [µg/mL] | MIC [18] [µg/mL] | MIC [19] [µg/mL] | IC50 ([20]; first value) [µM] | other results
1 | CC(C)(C)OC(=O)NCC(NC(=O)c1c[nH]c2cc(Br)ccc12)c1c[nH]c2ccc(Br)cc12 (stereo not drawn) [Compound 3g, tert-Butyl(2-(5-bromo-1H-indol-3-yl)-2-(6-bromo-1H-indolyl-3-carboxamido)ethyl)carbamate] | > 128 | 64 (≈ 111 µM) | 32 (≈ 55.5 µM) | > 128 | 2 (≈ 3.47 µM) | 1 (≈ 1.74 µM) | 2 (≈ 3.47 µM) | 64 (≈ 111 µM) | 64 (≈ 111 µM) | > 128 | > 128 | > 128 | > 128 | 64 (≈ 111 µM) | 128 (≈ 222 µM) | 32 (≈ 55.5 µM) | 32 (≈ 55.5 µM) | > 128 | > 128 | 5.48 | IC50 ([20]; second value): 6.06 µM; inhibition at 10 µM [21]: 98 ± 1%; inhibition at 1 µM [21]: 0%; inhibition at 10 µM [22]: 86 ± 2%; inhibition at 1 µM [22]: 9%; inhibition at 10 µM [23]: 83 ± 10%; inhibition at 1 µM [23]: 0%; MIC [24]: 2 µg/mL (≈ 3.47 µM); MIC [25]: 1 µg/mL (≈ 1.74 µM); MIC [26]: 2 µg/mL (≈ 3.47 µM); MIC [27]: 2 µg/mL (≈ 3.47 µM); MIC [28]: 2 µg/mL (≈ 3.47 µM); MIC [29]: 2 µg/mL (≈ 3.47 µM); MIC [30]: 2 µg/mL (≈ 3.47 µM); MIC [31]: 2 µg/mL (≈ 3.47 µM); MIC [32]: 1 µg/mL (≈ 1.74 µM); MIC [33]: 1 µg/mL (≈ 1.74 µM)
2 | CC(C)(C)OC(=O)NCC(NC(=O)c1c[nH]c2cc(Br)ccc12)c1c[nH]c2cc(Br)ccc12 (stereo not drawn) [Compound 3i, tert-Butyl (2-(6-bromo-1H-indol-3-yl)-2-(6-bromo-1H-indolyl-3-carboxamido)ethyl)carbamate] | > 128 | 64 (≈ 111 µM) | 32 (≈ 55.5 µM) | 64 (≈ 111 µM) | 2 (≈ 3.47 µM) | 2 (≈ 3.47 µM) | 2 (≈ 3.47 µM) | 32 (≈ 55.5 µM) | 32 (≈ 55.5 µM) | > 128 | > 128 | > 128 | > 128 | 16 (≈ 27.8 µM) | 32 (≈ 55.5 µM) | 64 (≈ 111 µM) | 32 (≈ 55.5 µM) | > 128 | > 128 | 1.9 | IC50 ([20]; second value): 2.1 µM; inhibition at 10 µM [21]: 100 ± 1%; inhibition at 1 µM [21]: 3%; inhibition at 10 µM [22]: 91 ± 1%; inhibition at 1 µM [22]: 4%; inhibition at 10 µM [23]: 91 ± 7%; inhibition at 1 µM [23]: 10%; MIC [24]: 2 µg/mL (≈ 3.47 µM); MIC [25]: 1 µg/mL (≈ 1.74 µM); MIC [26]: 1 µg/mL (≈ 1.74 µM); MIC [27]: 1 µg/mL (≈ 1.74 µM); MIC [28]: 1 µg/mL (≈ 1.74 µM); MIC [29]: 2 µg/mL (≈ 3.47 µM); MIC [30]: 2 µg/mL (≈ 3.47 µM); MIC [31]: 2 µg/mL (≈ 3.47 µM); MIC [32]: 1 µg/mL (≈ 1.74 µM); MIC [33]: 1 µg/mL (≈ 1.74 µM)
3 | CC(C)(C)OC(=O)NCC(NC(=O)c1c[nH]c2ccc(Br)cc12)c1c[nH]c2ccccc12 (stereo not drawn) [Compound 3c, tert-Butyl [2-(1H-indol-3-yl)-2-(5-bromo-1H-indol-3-yl-carboxamido)ethyl]carbamate] | > 128 | 64 (≈ 129 µM) | 32 (≈ 64.3 µM) | > 128 | 8 (≈ 16.1 µM) | 8 (≈ 16.1 µM) | 8 (≈ 16.1 µM) | 64 (≈ 129 µM) | 64 (≈ 129 µM) | > 128 | > 128 | > 128 | > 128 | > 128 | > 128 | 64 (≈ 129 µM) | 32 (≈ 64.3 µM) | > 128 | > 128 | 8.02 | IC50 ([20]; second value): 5.43 µM; inhibition at 10 µM [21]: 46 ± 8%; inhibition at 1 µM [21]: 0%; inhibition at 10 µM [22]: 42 ± 3%; inhibition at 1 µM [22]: 11%; inhibition at 10 µM [23]: 16 ± 9%; inhibition at 1 µM [23]: 0%; MIC [24]: 8 µg/mL (≈ 16.1 µM); MIC [25]: 8 µg/mL (≈ 16.1 µM); MIC [26]: 8 µg/mL (≈ 16.1 µM); MIC [27]: 8 µg/mL (≈ 16.1 µM); MIC [28]: 8 µg/mL (≈ 16.1 µM); MIC [29]: 8 µg/mL (≈ 16.1 µM); MIC [30]: 8 µg/mL (≈ 16.1 µM); MIC [31]: 8 µg/mL (≈ 16.1 µM); MIC [32]: 8 µg/mL (≈ 16.1 µM); MIC [33]: 8 µg/mL (≈ 16.1 µM)

Reference: US9676715B2, “Bis-indolic derivatives, a process for preparing the same and their uses as a drug” (UNIVERSITE JOSEPH FOURIER, priority 2011, dated 2017)
